US20210361581A1, “ADDITIVE FOR A POWDER MATERIAL INTENDED FOR COMPACTION INTO SHAPED BODIES” (IOI OLEO GMBH, priority 2018, published 2021)

Assays:
[1] = Contact angle with water (hydrophobicity); format: physicochemical; details: 16 weeks at room temperature (20° C.) and at 40° C., against start value
Method: An advantageous property of the PGFEs for an additive in accordance with claim 1 which should be considered is the hydrophobicity, which can be determined by determining the contact angle. The determination of the hydrophobicity is carried out by determining the contact angle between the PGFE in the solid physical state and a droplet of purified water. According to Young's equation, cos θ=(γSV−γSL)/γLV, wherein γSL is the interfacial tension between the PGFE and water, γLV is the interfacial tension of the water droplet and γSV is the surface tension between the PGFE and the surrounding air. θ is the contact angle. Thus, the larger the contact angle θ, the higher is the surface tension between the PGFE and the water and the higher is the hydrophobicity of the PGFE under investigation. The contact angles for the proposed polyglycerol fatty acid esters also correlate with the HLB value which is often used in pharmaceutical technology, which is on a scale of 0 to 20 and provides information regarding the ratio of lipophilic to hydrophilic molecular fractions, wherein the hydrophilic fraction increases with increasing HLB value. […]

[2] = Lopes et al., J. Pharm. Sci. 104: 4257-4265, 2015; cited from earlier work

## CCCCCCCCCCCCCCCCCC(=O)OCC(COC(=O)CCCCCCCCCCCCCCCCC)OC(=O)CCCCCCCCCCCCCCCCC [glycerol tristearate]
[1]
  variation (deviation) of contact angle with water after 16 weeks: 40 °
[2]
  increase in the crystal thickness after complete transformation of a- into b-modification: approximately 67%
